Data published in PMC6151762, “Halogenated 1-Hydroxynaphthalene-2-Carboxanilides Affecting Photosynthetic Electron Transport in Photosystem II” (Molecules : A Journal of Synthetic Chemistry and Natural …, 2017).
Where “and” joins values, the source holds several entries; their conditions need not be identical. Identical values can stand only once. Like-named read-outs stand apart in the source and are kept apart here.

What was measured:
[1] = test system: photosynthetic electron transport (PET) in spinach chloroplasts; set-up: method as in Gonec et al. [11]; settings: compounds 1-7 published earlier, ref Gonec et al. [11], read-out: PET Inhibition IC50; cited from earlier work
[2] = test system: photosynthetic electron transport (PET) in spinach chloroplasts; test: Inhibition of photosynthetic electron transport (PET) in spinach chloroplasts (DCPIP photoreduction); type: biochemical, Spinacia oleracea L.; settings: chlorophyll 30 mg/L
Experimental: Chloroplasts were prepared from spinach (Spinacia oleracea L.) according to Masarovicova and Kralova. The inhibition of photosynthetic electron transport (PET) in spinach chloroplasts was determined spectrophotometrically (Genesys 6, Thermo Scientific, USA), using an artificial electron acceptor 2,6-dichlorophenol-indophenol (DCIPP) according to Kralova et al., and the rate of photosynthetic electron transport was monitored as photoreduction of DCPIP. The measurements were carried out in phosphate buffer (0.02 M, pH 7.2) containing sucrose (0.4 M), MgCl2 (0.005 M) and NaCl (0.015 M). The chlorophyll content was 30 mg/L in these experiments, and the samples were irradiated (~100 W/m^2 with 10 cm distance) with a halogen lamp (250 W) using a 4-cm water filter to prevent warming of the samples (suspension temperature 22 °C). The studied compounds were dissolved in DMSO due to their limited water solubility. […] The inhibitory efficiency of the studied compounds was expressed by IC50 values, i.e., by molar concentration of the compounds causing a 50% decrease in the […] relative to the untreated control.

[3] = Aqueous solubility (qualitative); type: physicochemical; settings: compared with 2,5-, 2,6-, 3,4- and 3,5-disubstituted derivatives
[4] = test system: chlorophyll a (Chla) in pigment-protein complexes in PS II; test: Fluorescence of chlorophyll a in spinach chloroplasts; type: biochemical, Spinacia oleracea L.; settings: with increasing concentration (c = 0, 56, 220, 431 μM); λex = 436 nm; chlorophyll 10 mg/L
Experimental: (§1) The fluorescence emission spectra of chlorophyll a (Chla) and aromatic amino acids in spinach chloroplasts were recorded on fluorescence spectrophotometer F-2000 (Hitachi, Tokyo, Japan) using excitation wavelength λex = 436 nm for monitoring the fluorescence of Chla and λex = 275 nm for monitoring the fluorescence of aromatic amino acids, excitation slit 20 nm and emission slit 10 nm. The samples were kept in the dark for 2 min prior to the measurement. The phosphate buffer used for dilution of the chloroplast suspension was the same as described above. Due to low aqueous solubility, the compounds were added to a chloroplast suspension in DMSO solution. The DMSO concentration in all samples was the same as in the control (10%). The chlorophyll concentration in chloroplast suspension was 10 mg/L.

[5] = test system: aromatic amino acids (AAA) in photosynthetic proteins situated mainly in PS II; test: Fluorescence of aromatic amino acids in spinach chloroplasts; type: biochemical, Spinacia oleracea L.; settings: with increasing concentration (c = 0-47.2 μM); λex = 275 nm; chlorophyll 10 mg/L
Experimental: as §1

| SMILES | IC50 [2] | melting point [°C] | also measured |
| --- | --- | --- | --- |
| O=C(Nc1ccccc1)c1ccc2ccccc2c1O [Compound 1] | – | – | IC50 [1]: 31.3 µM |
| O=C(Nc1ccccc1Cl)c1ccc2ccccc2c1O [Compound 2] | – | – | IC50 [1]: 29.4 µM |
| O=C(Nc1cccc(Cl)c1)c1ccc2ccccc2c1O [Compound 3] | – | – | IC50 [1]: 7.9 µM |
| O=C(Nc1ccc(Cl)cc1)c1ccc2ccccc2c1O [Compound 4] | – | – | IC50 [1]: 10.8 µM |
| O=C(Nc1ccccc1Br)c1ccc2ccccc2c1O [Compound 5] | – | – | IC50 [1]: 61.9 µM |
| O=C(Nc1cccc(Br)c1)c1ccc2ccccc2c1O [Compound 6] | – | – | IC50 [1]: 8.2 µM |
| O=C(Nc1ccc(Br)cc1)c1ccc2ccccc2c1O [Compound 7] | – | – | IC50 [1]: 9.6 µM |
| O=C(Nc1cccc(Cl)c1Cl)c1ccc2ccccc2c1O [Compound 8, N-(2,3-Dichlorophenyl)-1-hydroxynaphthalene-2-carboxamide] | 235 µM | – | aqueous solubility [3]: limited aqueous solubility |
| O=C(Nc1ccc(Cl)cc1Cl)c1ccc2ccccc2c1O [Compound 9, N-(2,4-Dichlorophenyl)-1-hydroxynaphthalene-2-carboxamide] | 531 µM | – | aqueous solubility [3]: limited aqueous solubility |
| O=C(Nc1cc(Cl)ccc1Cl)c1ccc2ccccc2c1O [Compound 10, N-(2,5-Dichlorophenyl)-1-hydroxynaphthalene-2-carboxamide] | 59.6 µM | – | – |
| O=C(Nc1c(Cl)cccc1Cl)c1ccc2ccccc2c1O [Compound 11, N-(2,6-Dichlorophenyl)-1-hydroxynaphthalene-2-carboxamide] | 100 µM | – | – |
| O=C(Nc1ccc(Cl)c(Cl)c1)c1ccc2ccccc2c1O [Compound 12, N-(3,4-Dichlorophenyl)-1-hydroxynaphthalene-2-carboxamide] | 13.3 µM | – | – |
| O=C(Nc1cc(Cl)cc(Cl)c1)c1ccc2ccccc2c1O [Compound 13, N-(3,5-Dichlorophenyl)-1-hydroxynaphthalene-2-carboxamide] | 5.2 µM | – | – |
| O=C(Nc1cc(Cl)c(Cl)cc1Cl)c1ccc2ccccc2c1O [Compound 14, 1-Hydroxy-N-(2,4,5-trichlorophenyl)naphthalene-2-carboxamide] | 153 µM | – | – |
| O=C(Nc1c(Cl)cc(Cl)cc1Cl)c1ccc2ccccc2c1O [Compound 15, 1-Hydroxy-N-(2,4,6-trichlorophenyl)naphthalene-2-carboxamide] | 10.6 µM | – | – |
| O=C(Nc1cc(Cl)c(Cl)c(Cl)c1)c1ccc2ccccc2c1O [Compound 16, 1-Hydroxy-N-(3,4,5-trichlorophenyl)naphthalene-2-carboxamide] | 8 µM | – | – |
| O=C(Nc1ccc(Br)cc1Br)c1ccc2ccccc2c1O [Compound 17, N-(2,4-Dibromophenyl)-1-hydroxynaphthalene-2-carboxamide] | 505 µM | 185 to 188 | aqueous solubility [3]: limited aqueous solubility |
| O=C(Nc1cc(Br)ccc1Br)c1ccc2ccccc2c1O [Compound 18, N-(2,5-Dibromophenyl)-1-hydroxynaphthalene-2-carboxamide] | 7.6 µM | 198 to 200 | – |
| O=C(Nc1c(Br)cccc1Br)c1ccc2ccccc2c1O [Compound 19, N-(2,6-Dibromophenyl)-1-hydroxynaphthalene-2-carboxamide] | 78 µM | 212 to 216 | – |
| O=C(Nc1c(Br)cc(Br)cc1Br)c1ccc2ccccc2c1O [Compound 20, 1-Hydroxy-N-(2,4,6-tribromophenyl)naphthalene-2-carboxamide] | 45 µM | 115 to 118 | – |
| O=C(Nc1ccc(Cl)cc1Br)c1ccc2ccccc2c1O [Compound 21, N-(2-Bromo-4-chlorophenyl)-1-hydroxynaphthalene-2-carboxamide] | 278 µM | 182 to 184 | aqueous solubility [3]: limited aqueous solubility |
| O=C(Nc1ccc(Br)cc1Cl)c1ccc2ccccc2c1O [Compound 22, N-(4-Bromo-2-chlorophenyl)-1-hydroxynaphthalene-2-carboxamide] | 171 µM | 186 to 187 | aqueous solubility [3]: limited aqueous solubility |
| O=C(Nc1cc(Br)ccc1Cl)c1ccc2ccccc2c1O [Compound 23, N-(5-Bromo-2-chlorophenyl)-1-hydroxynaphthalene-2-carboxamide] | 60.3 µM | 178 to 180 | intensity of Chla fluorescence emission band at 686 nm [4]: gradual decrease; AAA fluorescence at 334 nm [5]: quenching of AAA fluorescence at 334 nm was observed |
| O=C(Nc1ccc(Br)c(Cl)c1)c1ccc2ccccc2c1O [Compound 24, N-(4-Bromo-3-chlorophenyl)-1-hydroxynaphthalene-2-carboxamide] | 6.7 µM | 203 to 205 | – |
| CN(C)C(=O)Nc1ccc(Cl)c(Cl)c1 [DCMU, 3-(3,4-dichlorophenyl)-1,1-dimethylurea, reference compound] | ~1.9 µM and 1.9 µM | – | – |
